Reference: PubChem BioAssay (NCI)
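Each compound was tested at five concentrations against cells in 96-well plates for 48 hours. At the GI50, growth is halved. TGI denotes the concentration required for complete inhibition of growth.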

How the values were obtained:
Assay in all cases: growth of human tumour cells (NCI), 48 h
A549 NSCLC = system: A549 NSCLC
DU-145 prostate = system: DU-145 prostate
HS 578T breast = system: HS 578T breast
KM12 colon = system: KM12 colon
NCI-H23 lung = system: NCI-H23 lung
OVCAR-4 ovarian = system: OVCAR-4 ovarian
OVCAR-8 ovarian = system: OVCAR-8 ovarian
PC-3 prostate = system: PC-3 prostate
OVCAR-3 ovarian = system: OVCAR-3 ovarian
SK-OV-3 ovarian = system: SK-OV-3 ovarian

In the case of CCO/C(=N/S(=O)(=O)C(F)(F)F)N(C(C)C)C(C)C, the TGI (A549 NSCLC) is reported as over 100 µM, the TGI (DU-145 prostate) is reported as over 100 µM and the TGI (HS 578T breast) is reported as over 100 µM. It also gave a TGI (KM12 colon) of over 100 µM, a TGI (NCI-H23 lung) of over 100 µM and a TGI (OVCAR-4 ovarian) of over 100 µM. The TGI (OVCAR-8 ovarian) was over 100 µM and the TGI (PC-3 prostate) was over 100 µM.
In the case of C=CCC1(C#N)C(=S)NC2=C(C(=O)CC(C)(C)C2)C1c1ccccc1 (stereo not given), the TGI (A549 NSCLC) is reported as over 100 µM, the TGI (DU-145 prostate) is reported as 40.5 µM and the TGI (KM12 colon) is reported as over 100 µM. The TGI (NCI-H23 lung) was over 100 µM, the TGI (OVCAR-4 ovarian) was 88.9 µM and the TGI (OVCAR-8 ovarian) was 53.1 µM. For the same compound, the TGI (PC-3 prostate) was over 100 µM.
O=c1[nH]cc(NCCCl)c(=O)[nH]1 showed a TGI (A549 NSCLC) of over 100 µM, a TGI (DU-145 prostate) of over 100 µM and a TGI (KM12 colon) of over 100 µM. It also gave a TGI (NCI-H23 lung) of over 100 µM, a TGI (OVCAR-3 ovarian) of over 100 µM and a TGI (OVCAR-4 ovarian) of over 100 µM. The TGI (OVCAR-8 ovarian) was over 100 µM, the TGI (PC-3 prostate) was over 100 µM and the TGI (SK-OV-3 ovarian) was over 100 µM.
Compound CNC(C)(C)Cc1ccc(Cl)cc1 has a TGI (A549 NSCLC) of over 100 µM, a TGI (KM12 colon) of over 100 µM and a TGI (NCI-H23 lung) of over 100 µM. It also gave a TGI (OVCAR-3 ovarian) of over 100 µM, a TGI (OVCAR-4 ovarian) of over 100 µM and a TGI (OVCAR-8 ovarian) of over 100 µM. It also gave a TGI (SK-OV-3 ovarian) of over 100 µM.
For O=C(/C=C(/C=C/c1ccc2[nH]ccc2c1)OB(F)F)/C=C/c1ccc2[nH]ccc2c1, the GI50 (DU-145 prostate) was 1.64 µM, the TGI (DU-145 prostate) was 4.2 µM and the GI50 (HS 578T breast) was 3.96 µM. It also gave a TGI (HS 578T breast) of over 100 µM, a GI50 (OVCAR-4 ovarian) of 0.726 µM and a TGI (OVCAR-4 ovarian) of 6.46 µM. It also gave a GI50 (OVCAR-8 ovarian) of 2.51 µM, a TGI (OVCAR-8 ovarian) of over 100 µM and a GI50 (PC-3 prostate) of 1.49 µM. It also gave a TGI (PC-3 prostate) of over 100 µM, a GI50 (SK-OV-3 ovarian) of 3.43 µM and a TGI (SK-OV-3 ovarian) of over 100 µM.
COC1CC(N)(c2ccccc2)C(O)C(C)O1 (stereo not given) gave a TGI (A549 NSCLC) of over 100 µM, a TGI (DU-145 prostate) of over 100 µM and a TGI (HS 578T breast) of over 100 µM. The TGI (NCI-H23 lung) was over 100 µM, the TGI (OVCAR-3 ovarian) was over 100 µM and the TGI (OVCAR-4 ovarian) was over 100 µM. It also gave a TGI (OVCAR-8 ovarian) of over 100 µM, a TGI (PC-3 prostate) of over 100 µM and a TGI (SK-OV-3 ovarian) of over 100 µM.
Cc1cc(C)nc(NS(=O)(=O)c2ccc(NC(=O)c3c4ccccc4nc4ccccc34)cc2)n1 gave a TGI (A549 NSCLC) of over 100 µM, a TGI (DU-145 prostate) of over 100 µM and a TGI (KM12 colon) of over 100 µM. The TGI (NCI-H23 lung) was over 100 µM, the TGI (OVCAR-3 ovarian) was over 100 µM and the TGI (OVCAR-4 ovarian) was over 100 µM. The TGI (OVCAR-8 ovarian) was over 100 µM, the TGI (PC-3 prostate) was over 100 µM and the TGI (SK-OV-3 ovarian) was over 100 µM.
Cc1ccc2nc(SCC(=O)N=Nc3c(O)[nH]c4ccccc34)n(-c3ccccc3)c(=O)c2c1 was tested, and the TGI (A549 NSCLC) was 28.6 µM, the TGI (DU-145 prostate) was 26.2 µM and the TGI (HS 578T breast) was 46.2 µM. The TGI (KM12 colon) was 27.9 µM, the TGI (NCI-H23 lung) was 33.1 µM and the TGI (OVCAR-3 ovarian) was 41.9 µM. The TGI (OVCAR-4 ovarian) was 25.9 µM, the TGI (PC-3 prostate) was 36.1 µM and the TGI (SK-OV-3 ovarian) was 26.7 µM.
c1ncn(C23C4C5C6C4C2C6C53)n1 (stereo not given) was tested, and the TGI (A549 NSCLC) was over 100 µM, the TGI (DU-145 prostate) was over 100 µM and the TGI (HS 578T breast) was over 100 µM. The TGI (KM12 colon) was over 100 µM, the TGI (NCI-H23 lung) was over 100 µM and the TGI (OVCAR-8 ovarian) was over 100 µM. The TGI (PC-3 prostate) was over 100 µM and the TGI (SK-OV-3 ovarian) was over 100 µM.
O=S1(=O)c2ccccc2Oc2ccc(C(/C=N/O)=N/O)cc21 was tested, and the TGI (A549 NSCLC) was over 100 µM, the TGI (DU-145 prostate) was 53 µM and the TGI (KM12 colon) was over 100 µM. The TGI (OVCAR-3 ovarian) was 36.6 µM, the TGI (OVCAR-4 ovarian) was over 100 µM and the TGI (OVCAR-8 ovarian) was 47.7 µM. The TGI (PC-3 prostate) was over 100 µM and the TGI (SK-OV-3 ovarian) was over 100 µM.
Work on S=C1c2ccc(Cl)cc2-n2cnnc2C2CSCN12 (stereo not given) yielded a TGI (A549 NSCLC) of over 100 µM, a TGI (DU-145 prostate) of over 100 µM and a TGI (HS 578T breast) of over 100 µM. The TGI (KM12 colon) was over 100 µM, the TGI (OVCAR-3 ovarian) was over 100 µM and the TGI (OVCAR-4 ovarian) was over 100 µM. For the same compound, the TGI (OVCAR-8 ovarian) was over 100 µM, the TGI (PC-3 prostate) was over 100 µM and the TGI (SK-OV-3 ovarian) was over 100 µM.
Work on COc1ccc2c(c1)C(=O)CC1c3cnccc3C(=O)N21 (stereo not given) yielded a TGI (A549 NSCLC) of over 100 µM, a TGI (DU-145 prostate) of over 100 µM and a TGI (KM12 colon) of over 100 µM. It also gave a TGI (NCI-H23 lung) of over 100 µM, a TGI (OVCAR-3 ovarian) of over 100 µM and a TGI (OVCAR-4 ovarian) of over 100 µM. For the same compound, the TGI (OVCAR-8 ovarian) was over 100 µM, the TGI (PC-3 prostate) was over 100 µM and the TGI (SK-OV-3 ovarian) was over 100 µM.
In the case of Cc1cc([NH-])c([NH-])cc1C.[Cl][Pt+2][Cl], the GI50 (A549 NSCLC) is reported as 49 µM, the TGI (A549 NSCLC) is reported as over 100 µM and the GI50 (KM12 colon) is reported as 24.5 µM. It also gave a TGI (KM12 colon) of over 100 µM, a GI50 (NCI-H23 lung) of 14.2 µM and a TGI (NCI-H23 lung) of 37 µM. For the same compound, the GI50 (OVCAR-3 ovarian) was 17.9 µM, the TGI (OVCAR-3 ovarian) was 33.6 µM and the GI50 (OVCAR-4 ovarian) was 16.9 µM. It also gave a TGI (OVCAR-4 ovarian) of 31.7 µM, a GI50 (OVCAR-8 ovarian) of 16.8 µM and a TGI (OVCAR-8 ovarian) of over 55.5 µM. The GI50 (SK-OV-3 ovarian) was over 96.8 µM and the TGI (SK-OV-3 ovarian) was over 100 µM.
With CC(=O)O[C@H]1CC(C)(C)C(=C=C/C(C)=C/C=C/C=C/C=C(C)/C=C2C=C(/C=C/[C@@]34O[C@]3(C)C[C@@H](O)CC4(C)C)C(=O)O/2)[C@](C)(O)C1 the TGI (A549 NSCLC) was 50.2 µM, the TGI (DU-145 prostate) was over 100 µM and the TGI (KM12 colon) was 46.5 µM. It also gave a TGI (NCI-H23 lung) of 18.1 µM, a TGI (OVCAR-3 ovarian) of 23.2 µM and a TGI (OVCAR-4 ovarian) of over 100 µM. The TGI (OVCAR-8 ovarian) was 25.2 µM and the TGI (PC-3 prostate) was 15.9 µM.
In the case of CC(=O)Nc1ccc2c(C)c3c(nc2n1)[nH]c1ccccc13, the TGI (A549 NSCLC) is reported as over 100 µM, the TGI (DU-145 prostate) is reported as over 100 µM and the TGI (HS 578T breast) is reported as 70 µM. It also gave a TGI (KM12 colon) of 47.6 µM, a TGI (NCI-H23 lung) of 91.1 µM and a TGI (OVCAR-3 ovarian) of 65.5 µM. For the same compound, the TGI (OVCAR-4 ovarian) was over 100 µM, the TGI (OVCAR-8 ovarian) was 87.6 µM and the TGI (PC-3 prostate) was over 100 µM.
In the case of CCCCCOc1ccc(C=Nc2ccc(CCc3ccc(N=Cc4ccc(OCCCCC)cc4)cc3)cc2)cc1, the TGI (A549 NSCLC) is reported as over 100 µM, the TGI (KM12 colon) is reported as over 100 µM and the TGI (NCI-H23 lung) is reported as over 100 µM. The TGI (OVCAR-3 ovarian) was over 100 µM, the TGI (OVCAR-4 ovarian) was over 100 µM and the TGI (OVCAR-8 ovarian) was over 100 µM. The TGI (SK-OV-3 ovarian) was over 100 µM.
CSc1ncc2c(n1)C(C#N)C1Sc3ccccc3N1C2=O (stereo not given) gave a TGI (A549 NSCLC) of over 100 µM, a TGI (DU-145 prostate) of over 100 µM and a TGI (KM12 colon) of over 100 µM. For the same compound, the TGI (NCI-H23 lung) was over 100 µM, the TGI (OVCAR-3 ovarian) was over 100 µM and the TGI (OVCAR-4 ovarian) was over 100 µM. For the same compound, the TGI (OVCAR-8 ovarian) was over 100 µM and the TGI (SK-OV-3 ovarian) was over 100 µM.
